Here are results for two molecules from article PMC8490515, “Neuromedin B receptor stimulation of Cav3.2 T-type Ca^2+ channels in primary sensory neurons mediates peripheral pain hypersensitivity” (Theranostics, 2021).

The test system of one experiment is Cav3.2. Put plainly: Western blot of Cav3.2 protein in TG cells / TGs. The experiment is classed as cell-based, mouse. As to conditions: 100 nM Nmb. (A western blot detects proteins with antibodies after separation by electrophoresis.)
Experiment [1] relates to p42 MAPK in Rat-1 cells transfected with the Nmb-preferring receptor. Particulars: PKC-independent and pertussis toxin-insensitive; ref [62]; cited from earlier work. The text has this: In contrast, stimulation of PKC either by insulin-like growth factor in dorsal root ganglion neurons or by angiote ...
Another experiment deals with Cav3.2 (α1H). Put plainly: Cav3.2 channel currents in HEK293 cells coexpressing NmbR. The experiment is classed as cell-based, human. As to the method: Standard whole-cell recordings were made at room temperature (22-23 °C) as described previously, [25]. Recording electrodes were pulled from borosilicate glass microcapillary tubes (Sutter Instruments) and had resistances from 3 to 5 MΩ when filled with internal solution. Recordings were obtained using a MultiClamp 700B amplifier (Axon Instruments). Data were digitized on a personal computer using a Digidata 1440 interface under the control of the pClamp10.2 acquisition package (Molecular Devices). Data were acquired at 20 kHz with a low-pass Bessel filter at 2-5 kHz. Series resistance was compensated to 80%. The internal solution used for T-type channel current recordings contained 110 mM CsCl, 4 mM Mg-ATP, 0.3 mM Na2-GTP, 25 mM HEPES, and 10 mM EGTA, adjusted to pH 7.4 with CsOH; 295 mOsm. The external solution used for T-type channel current recordings contained 5 mM BaCl2, 140 mM TEA-Cl, 10 mM HEPES, 0.5 mM MgCl2, 5 mM CsCl, and 5.5 mM glucose, adjusted to pH 7.35 with TEA-OH; 305 mOsm. In experiments for Kv current recordings, the extracellular solution contained 140 mM choline-Cl, 1 mM MgCl2, 0.03 mM CaCl2, 5 mM KCl, 10 mM HEPES, and 10 mM glucose, adjusted to pH 7.4 with KOH; 310 mOsm. The intracellular pipette solution contained 140 mM KCl, 1 mM MgCl2, 0.5 mM CaCl2, 3 mM Mg-ATP, 0.3 mM Na2-GTP, 10 mM HEPES, and 5 mM EGTA, adjusted to pH 7.4 with KOH; 295 mOsm.

The test system of the next experiment is small TG neurons. Put plainly: TG neuronal excitability (action potential firing, rheobase, threshold). The experiment is classed as cell-based, mouse. The procedure: All the procedures performed in this study were carried out in accordance with NIH guidelines and were approved by the Institutional Animal Care and Use Committee of Soochow University. TG neurons were dissociated as previously described, [23]. Briefly, TGs were harvested from 8- to 10-week-old ICR mice of either sex, cut into small pieces and treated with 2 mg/mL collagenase D (Roche) for 20 min followed by 1.5 mg/mL trypsin (Sigma) at 37 °C for 15 min. Cells were dissociated via gentle trituration with fire-polished sterilized Pasteur pipettes and centrifuged through a 15% BSA gradient to remove debris and nonneuronal cells. TG neurons were resuspended in neurobasal A (Thermo Fisher) supplemented with B27 (Thermo Fisher) and transferred onto Matrigel-coated coverslips. Patch clamp recordings were conducted 2 to 6 h after plating. In shRNA-treated knockdown experiments, TG cells were replated onto coverslips 48 h after infection.
Standard whole-cell recordings were made at room temperature (22-23 °C) as described previously, [25]. Recording electrodes were pulled from borosilicate glass microcapillary tubes (Sutter Instruments) and had resistances from 3 to 5 MΩ when filled with internal solution. Recordings were obtained using a MultiClamp 700B amplifier (Axon Instruments). Data were digitized on a personal computer using a Digidata 1440 interface under the control of the pClamp10.2 acquisition package (Molecular Devices). Data were acquired at 20 kHz with a low-pass Bessel filter at 2-5 kHz. Series resistance was compensated to 80%. The internal solution used for T-type channel current recordings contained 110 mM CsCl, 4 mM Mg-ATP, 0.3 mM Na2-GTP, 25 mM HEPES, and 10 mM EGTA, adjusted to pH 7.4 with CsOH; 295 mOsm. The external solution used for T-type channel current recordings contained 5 mM BaCl2, 140 mM TEA-Cl, 10 mM HEPES, 0.5 mM MgCl2, 5 mM CsCl, and 5.5 mM glucose, adjusted to pH 7.35 with TEA-OH; 305 mOsm. In experiments for Kv current recordings, the extracellular solution contained 140 mM choline-Cl, 1 mM MgCl2, 0.03 mM CaCl2, 5 mM KCl, 10 mM HEPES, and 10 mM glucose, adjusted to pH 7.4 with KOH; 310 mOsm. The intracellular pipette solution contained 140 mM KCl, 1 mM MgCl2, 0.5 mM CaCl2, 3 mM Mg-ATP, 0.3 mM Na2-GTP, 10 mM HEPES, and 5 mM EGTA, adjusted to pH 7.4 with KOH; 295 mOsm. The two kinetically distinct Kv currents in small TG neurons were separated by the two-step voltage protocol as previously described, [26]. The external solution for Nav current clamp recordings contained 2 mM KCl, 2 mM MgCl2, 25 mM HEPES, 2 mM CaCl2, 128 mM NaCl, and 30 mM glucose, adjusted to pH 7.4 with NaOH; 305 mOsm. The internal solution contained 10 mM NaCl, 110 mM KCl, 4 mM Mg-ATP, 0.3 mM Na2-GTP, 25 mM HEPES, and 2 mM EGTA, adjusted to pH 7.3 with KOH; 295 mOsm. Nmb was applied to a patched cell by an air-pressure microinjector (Pneumatic PicoPump, model PV830, WPI).
We next determined the role of the Nmb-induced T-type channel response in regulating TG neuronal excitability. […] Furthermore, application of Nmb (100 nM) to TG neurons decreased the peak amplitude of the transient outward K^+ channel currents (A-type currents or IA) (decrease of 22.3 ± 3.9%; Figure 6C), while the sustained delayed rectifier K^+ channel currents (IDR) remained unaffected (decrease of 1.9 ± 1.6%; Figure 6C). […] To further test this hypothesis, a shorter (1 ms) current injection was applied to avoid contaminating the action potential waveform with the stimulus. Neurons were manually hyperpolarized to membrane potentials of -75 mV to maximize the number of T-type channels available for activation. With increasingly stronger current injections (+200 pA), the threshold current necessary to evoke an overshooting AP was determined for each neuron in the presence or absence of Nmb.

Experiment [2] has as its system T-type channels in small TG neurons. In words: Whole-cell patch clamp of T-type channel currents (IT) in small TG neurons. Format: cell-based, mouse. (In general: The patch-clamp technique gives a direct electrical read-out from membranes.)

On to Neuromedin B [Nmb], for which the “Cav3.2 protein expression in TG cells” value with Cav3.2 is “did not affect the Cav3.2 protein expression”. The “p42 MAPK activation” value in experiment [1] is on record as “activated p42 MAPK”. For the same molecule, the “increase of Cav3.2 channel currents” value in the experiment with Cav3.2 (α1H) (100 nM Nmb, -110 mV to -30 mV, n = 9) came to 36.2 ± 3.1%. Also, the EC50 (as a rule, the concentration at which the effect is half-maximal) in the experiment with Cav3.2 (α1H) (sigmoidal dose-response fit, read-out: EC50 for increase of Cav3.2 channel currents) was 47.6 nM. In addition, the “threshold current with Nmb” value in the experiment on small TG neurons (100 nM (control +0.98 nA)) is reported as “+0.79 nA”. Moreover, the “increase of action potential firing rate” value with small TG neurons (100 nM, 5 mM 4-AP and 5 μM nifedipine, 1-s current injection, n = 17) was 43.7 ± 3.7%. Also, the “cells in which the threshold was significantly lowered” value in the experiment with small TG neurons (100 nM, 1 ms current injection, -75 mV) is recorded as 15 of 19. In the experiment on small TG neurons (100 nM, n = 17), the resting membrane potential result is reported as “not significantly changed” and the “rheobase (vs nontreated)” value is “significantly lower”. In experiment [2] (100 nM, washout), the “reversal of IT increase when Nmb removed by washing” value is “partially reversed”. Also, in experiment [2] (100 nM, mean ± SEM, n = 9), the “increase of peak amplitude of IT by Nmb” value is 34.2 ± 1.9%. Also, in experiment [2] (100 nM, n = 8), the “current-voltage relationship curve of IT” value is listed as “downward shifted the current-voltage relationship curve”. Further, in experiment [2] (100 nM, n = 9), the “depolarizing shift in steady-state inactivation” value is ~ 7.3 mV and the “shift in activation properties” value is “no significant shifts in activation properties”. Further, the EC50 in experiment [2] (sigmoidal Hill equation fit, small TG neurons, read-out: EC50 for IT increase) worked out at 45.3 nM. The Vhalf of activation in experiment [2] (with 100 nM Nmb (control -47.1 ± 1.9 mV), n = 9) is -46.3 ± 2.2 mV. The “Vhalf of steady-state inactivation” value in experiment [2] (with 100 nM Nmb (control -80.1 ± 2.5 mV), n = 9) was -72.8 ± 1.3 mV.

`CCCCCCOC(=O)[C@]1(O)C[C@@H]2O[C@@]1(C)n1c3ccccc3c3c4c(c5c6ccccc6n2c5c31)C(=O)NC4` [KT-5720]: in the experiment with Cav3.2 (α1H) (pretreatment 1 µM KT-5720, 100 nM Nmb, n = 9), the “Nmb-induced increase of Cav3.2 currents after KT-5720” value is listed as 1.9 ± 4.2%. In the experiment on small TG neurons (pretreatment KT-5720 1 µM (n = 12) or NiCl2 50 μM (n = 11), 100 nM Nmb), the “effect on Nmb-mediated increase in AP firing rate / hyperexcitability” value is listed as “blocked”. Further, in experiment [2] (1 µM KT-5720 pretreatment, 10 μM forskolin, n = 6), the “effect on forskolin-induced IT increase” value is given as “abrogated”. For the same molecule, the “Nmb-induced increase in IT after KT-5720” value in experiment [2] (pretreatment 1 µM KT-5720, 100 nM Nmb, n = 7) came out at 2.8 ± 2.9%.
